Measured values reported in patent US20150104868A1, “Methods of Maintaining and Improving Biological Cell Function and Activity” (GARGILL INCORPORATED, priority 2012, published 2015).

Tests used:
erythrocytes [1] = experiment: Radical-induced hemolysis of erythrocytes; format: cell-based; settings: erythrocytes exposed to hyperglycemic conditions, 24 h incubation
[2] = tested on: Superoxide dismutases (total SOD, SOD1, SOD2); experiment: SOD activity, expression and protein levels in HUVEC; format: cell-based, human
Source text: One of the reactive oxygen species of which the production is likely to be increased during hyperglycemia is the superoxide radical (O2•—), potentially due to an over-activation of the mitochondrial respiratory chain. Superoxide dismutases (SODs) constitute a family of enzymes that effectively reduces the amount of superoxide radicals by turning them into hydrogen peroxide and oxygen. SODs occur in the cytoplasma (copper, zinc SOD or SOD1) and in the mitochondrion (manganese SOD or SOD2). A third form (SOD3 or EC-SOD) is found extracellularly. […] Accordingly, the expression protein and activity levels of SOD2 (which is the inducible SOD) SOD1 and total SOD activity were studied.
The total SOD activity (U/mg protein), SOD1 activity, SOD2 activity, SOD2 expression (by RT-PCR), and SOD2 protein (by Western blot) were not affected by HGERT vs HG […].

HUVEC cells [3] = experiment: Eicosanoids in HUVEC pellets and supernatants; format: cell-based, human
Procedure: Another parameter evaluated in the targeted assays included the study of 23 eicosanoids in a comparison of HG versus HGERT conditions.
In studying the supernatants, 14,15-dihydroxy-5Z,8Z,11Z-eicosatrienoate (14,15-DiHETrE), produced from arachidonic acid via Cyp 2C and 2J to form epoxyeicosatrienoic acids (EETs), then converted to DiHETrE via sEH, decreased from 0.0085 to 0.0040 nM (p<0.05). This decrease in 14,15-DiHETrE is consistent with high glucose suppression of sEH, and should result in increased EETs, which would produce vasodilation. EETs were not, however, observed to be increased.

[4] = tested on: Mouse intestine (entero-endocrine) STC-1 cells; settings: STC-1 cells, 10% w/v, 2 hours at 37° C.
Procedure: Appropriate blanks, positive controls, and standards were also included.
The lactate dehydrogenase (LDH) leakage from cells was analyzed in the supernatants as a marker for cytotoxic cell death.

[5] = tested on: Geotrichum candidum cells (GCC); experiment: Function and activity of freeze-dried Geotrichum candidum culture; format: cell-based
Source text: A starter culture with Geotrichum candidum cells (GCC) was produced by ID growing GCC in a medium containing 10% glucose and other nutrients. […] The function and activity of GCC was reduced during such preservation process. […] Function and activity was expressed by measuring how many doses GCC culture with a standardized amount of activity and function can be obtained per liter fermentation broth.

[6] = tested on: Beta cells (Cell line: HIT-T15); experiment: HIT-T15 beta cell viability (trypan blue, Countess); format: cell-based; settings: 6, 15 or 30 mM glucose 24 hours, with or without 5 mM ERT
Procedure: Beta cells (Cell line: HIT-T15) were obtained from supplier ATCC. The cells were seeded in 24 well plate (300,000 cells/well). After overnight attaching, the medium was removed and the cells were washed with HBSS. […] After 1 hour incubation, glucose solution was added to a final concentration of 6, 15, or 30 mM in the wells. Subsequently, the cells were incubated for 24 hours. After incubation, all cell material including medium and HBSS was collected and centrifuged (5 minutes, 500×g). The supernatant was removed and the cells were resuspended in 500 μl HBSS. The cell suspensions were diluted 1:1 in 0.4% trypan blue dye and loaded in a Countess Chamber. The cells were counted using the Countess cell counter, which calculated the viability (function and activity) of the cells.

Human 1.1E7 beta cells = experiment: 1.1E7 beta cell viability (trypan blue, Countess); format: cell-based; settings: 10, 30, 45 mM glucose, with or without 5 mM ERT
Procedure: Cell culture: Human 1.1E7 beta cells were cultured in RPMI 1640 medium containing 10% fetal calf serum, 2 mM L-Glutamine and 1% penicillin/streptomycin. Cells were maintained at 37° C. in a 5% CO2 atmosphere.
Viability: Cells were seeded in a 24 well plate. After overnight attaching, the medium was removed and cells were washed with HBSS. […] After 1 hour incubation a vehicle or glucose solution was added to a final concentration of 10, 30 or 45 mM in the wells. Subsequently, cells were incubated for 24 hours, 48 hours, 6 days, and 7 days. After incubation, all cell material including medium and HBSS was collected and centrifuged (5 minutes, 500×g). Supernatant was removed and cells were resuspended in 100 μl HBSS. Cell suspensions were diluted 1:1 in 0.4% trypan blue dye and loaded in a Countess Chamber. Cells were counted using the Invitrogen Countess® automated cell counter (Life Technologies Europe BV, Bleiswijk, the Netherlands).

[7] = Human study in patients with Type 2 diabetes mellitus (blood glucose, insulin, C-peptide); format: in vivo; settings: Type 2 diabetes patients, 12 g three times daily 28 days; before vs 2 hrs after 12 g intake
Procedure: A human study was conducted in patients with Type 2 diabetes mellitus. Patients were enrolled who were otherwise healthy patients with Type 2 diabetes mellitus as defined by fasting blood glucose >125 mg/dl or with ongoing treatment for Type 2 diabetes mellitus with the exception of insulin. […] Two hours after, blood drawings were taken again. […] After testing each variable for normality, a paired t-test was performed to determine statistical significance. For variables with a non-normal distribution, a Wilcoxon signed rank test was used. All analyses were performed using SPSS (IBM, version 19). Compliance was determined based on a count of empty sachets returned by study participants. Twenty-four subjects were enrolled and none withdrew from the study.

erythrocytes [8] = settings: in vitro model of radical-induced hemolysis; cited from earlier work
[9] = in vitro; cited from earlier work
HUVEC cells [10] = settings: ERT by itself, non-diabetic conditions; cited from earlier work

## OC[C@@H](O)[C@@H](O)CO [ERT, meso-1,2,3,4-tetrahydroxybutane]
Erythrocytes [1]
  radical-induced hemolysis: able to inhibit radical-induced hemolysis
[2]; HGERT vs HG
  total SOD activity, SOD1 activity, SOD2 activity, SOD2 expression (RT-PCR), SOD2 protein (Western blot): not affected
[2]; HUVEC
  transcription and protein levels of SOD2: did not affect transcription or the protein levels of SOD2
[2]; hyperglycemic conditions, effect not significant
  total superoxide dismutase activity: appeared to increase the total superoxide dismutase activity
HUVEC cells [3]; HG vs HGERT
  14,15-DiHETrE in supernatants: 4 pM
  TXB2: 1.20
HUVEC cells [3]; HGERT vs HG
  12-HETE in pellets: decreasing 12-HETE levels
[4]
  cell death (leakage of lactate dehydrogenase): cells could tolerate higher concentrations of ERT than glucose and other sugars tested
[5]; 2% ERT
  Change in GCC cell activity and function (blank set at 100): 120
  improvement of GCC activity and function: 20%
[5]; 2% ERT added before freeze drying
  Doses/ltr fermentation broth: 621 Doses/ltr
[5]; 3% ERT
  Change in GCC cell activity and function (blank set at 100): 126
  improvement of GCC activity and function: 26%
[5]; 3% ERT added before freeze drying
  Doses/ltr fermentation broth: 652 Doses/ltr
[5]; 5% ERT
  Change in GCC cell activity and function (blank set at 100): 107
  increase of GCC activity and function: 8%
[5]; 5% ERT added before freeze drying
  Doses/ltr fermentation broth: 555 Doses/ltr
[6]
  viability (function and activity) of HIT-T15 cells: attenuated this decrease significantly
Human 1.1E7 beta cells; 6 and 7 days
  viability of 1.1E7 cells: entirely prevented this decrease in beta cell viability
Human 1.1E7 beta cells; 24 and 48 hours
  viability of 1.1E7 cells: did not have any impact on this maintained viability
[7]
  blood C-peptide levels: increase in blood C-peptide levels
  blood glucose levels: borderline significant decrease in blood glucose levels
  blood insulin levels: non-significant increase in insulin levels
Erythrocytes [8]
  onset of oxidative damage, ABTS-induced hemolysis: able to delay the onset of oxidative damage
[9]
  hydroxyl radical scavenging: effective in scavenging hydroxyl radicals
  superoxide or peroxynitrite scavenging activity: does not possess any superoxide or peroxynitrite scavenging activity
HUVEC cells [10]
  viability, oxidative damage, SOD activity, nitric oxide production, adhesion molecule production, transcriptome: did not show changes
